{
  "source": "ChEMBL document CHEMBL5537122",
  "about": "“Design, synthesis, and biological evaluation of 4-(2-fluorophenoxy)-7-methoxyquinazoline derivatives as dual EGFR/c-Met inhibitors for the treatment of NSCLC” (Eur J Med Chem, 2024)",
  "key": {"[1]": {"assay": "Acute toxicity in KM mouse assessed as cell damage or necrosis in heart at 100 mg/kg, IG qa administered for 7 days and measured on day 8 by hematoxylin and eosin staining based assay", "format": "organism-based", "details": "in vivo, po, 192 h, time 8 day"}, "[2]": {"tested_on": "L02", "assay": "Induction in apoptosis in human L02 cells assessed as late apoptotic cells at 2.5 uM incubated for 24 hrs by Annexin V-FITC/Propidium Iodide staining based flow cytometry analysis (reference value: 0.36 %)", "format": "toxicity, cell-based", "details": "l02, 24 h"}, "[3]": {"assay": "Acute toxicity in KM mouse assessed as cell damage or necrosis in liver at 100 mg/kg, IG qa administered for 7 days and measured on day 8 by hematoxylin and eosin staining based assay", "format": "organism-based", "details": "in vivo, po, 192 h, time 8 day"}, "[4]": {"target": "ALK tyrosine kinase receptor (Homo sapiens) (UniProt Q9UM73)", "sequence (Q9UM73 19-1620 limits assumed)": "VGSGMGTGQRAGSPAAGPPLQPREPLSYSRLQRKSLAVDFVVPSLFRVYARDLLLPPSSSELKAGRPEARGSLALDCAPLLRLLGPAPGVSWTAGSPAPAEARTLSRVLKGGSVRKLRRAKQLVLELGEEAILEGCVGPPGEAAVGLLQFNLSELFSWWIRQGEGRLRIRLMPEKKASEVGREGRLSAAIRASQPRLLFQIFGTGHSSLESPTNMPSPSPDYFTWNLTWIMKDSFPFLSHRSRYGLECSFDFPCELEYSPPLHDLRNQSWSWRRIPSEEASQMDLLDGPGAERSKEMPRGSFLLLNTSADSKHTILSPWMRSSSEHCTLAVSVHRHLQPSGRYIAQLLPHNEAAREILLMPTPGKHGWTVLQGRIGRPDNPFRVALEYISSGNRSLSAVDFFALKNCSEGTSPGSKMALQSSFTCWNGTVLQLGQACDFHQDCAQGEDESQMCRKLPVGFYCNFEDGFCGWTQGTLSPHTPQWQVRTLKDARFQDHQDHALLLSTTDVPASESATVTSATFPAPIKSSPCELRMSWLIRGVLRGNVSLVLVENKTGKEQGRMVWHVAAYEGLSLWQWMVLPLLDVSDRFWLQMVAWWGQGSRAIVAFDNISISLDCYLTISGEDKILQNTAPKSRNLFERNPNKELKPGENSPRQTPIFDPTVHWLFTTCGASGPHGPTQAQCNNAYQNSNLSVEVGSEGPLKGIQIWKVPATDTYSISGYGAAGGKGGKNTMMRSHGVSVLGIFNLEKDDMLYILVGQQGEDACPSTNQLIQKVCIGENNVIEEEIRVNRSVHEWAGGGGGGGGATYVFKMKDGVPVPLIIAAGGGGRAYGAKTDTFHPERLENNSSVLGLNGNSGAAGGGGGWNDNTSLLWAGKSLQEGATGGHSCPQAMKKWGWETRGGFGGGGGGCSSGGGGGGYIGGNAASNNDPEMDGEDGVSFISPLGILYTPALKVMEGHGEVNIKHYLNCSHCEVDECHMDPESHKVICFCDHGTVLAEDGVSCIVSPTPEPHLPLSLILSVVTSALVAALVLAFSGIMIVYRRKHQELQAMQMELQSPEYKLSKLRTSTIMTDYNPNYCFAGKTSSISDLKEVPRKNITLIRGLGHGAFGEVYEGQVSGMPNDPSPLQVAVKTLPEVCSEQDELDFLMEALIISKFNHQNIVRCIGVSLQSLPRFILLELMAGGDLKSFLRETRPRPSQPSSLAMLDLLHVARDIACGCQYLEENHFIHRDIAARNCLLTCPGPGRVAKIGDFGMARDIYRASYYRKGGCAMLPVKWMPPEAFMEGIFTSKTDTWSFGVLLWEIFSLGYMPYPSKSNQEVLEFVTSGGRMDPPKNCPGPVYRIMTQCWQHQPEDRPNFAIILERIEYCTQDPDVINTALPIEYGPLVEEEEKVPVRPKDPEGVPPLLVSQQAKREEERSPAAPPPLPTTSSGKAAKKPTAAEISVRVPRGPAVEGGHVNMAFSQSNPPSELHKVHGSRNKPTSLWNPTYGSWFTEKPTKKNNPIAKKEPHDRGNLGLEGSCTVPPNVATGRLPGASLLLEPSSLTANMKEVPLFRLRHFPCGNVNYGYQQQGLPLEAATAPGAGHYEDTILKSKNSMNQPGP", "assay": "Inhibition of ALK (unknown origin) at 10 uM"}, "[5]": {"tested_on": "A549", "assay": "Antiproliferative activity against human A549 cells overexpressing c-Met and EGFR assessed as reduction in cell viability incubated for 72 hrs by MTT assay", "format": "functional, cell-based", "details": "A549, 72 h"}, "[6]": {"assay": "Acute toxicity in KM mouse assessed as cell damage or necrosis in lung at 100 mg/kg, IG qa administered for 7 days and measured on day 8 by hematoxylin and eosin staining based assay", "format": "organism-based", "details": "in vivo, po, 192 h, time 8 day"}, "[7]": {"tested_on": "A549", "assay": "Antimigratory activity against EGF-induced cell migration in serum starved human A549 cells overexpressing c-MET assessed as increase in width of artificial gap incubated for 24 hrs by wound healing assay", "format": "functional, cell-based", "details": "dose 1-2.5 µM"}, "[8]": {"tested_on": "A549", "assay": "Induction of cell cycle arrest in human A549 cells overexpressing c-MET assessed as accumulation of cells at S phase at 1 uM incubated for 24 hrs by RNase A/propidium iodide staining based flow cytometric analysis (reference value: 37.87 %)", "format": "functional"}, "[9]": {"tested_on": "Epidermal growth factor receptor (Homo sapiens), P00533 [L858R]", "sequence (P00533 whole entry L858R)": "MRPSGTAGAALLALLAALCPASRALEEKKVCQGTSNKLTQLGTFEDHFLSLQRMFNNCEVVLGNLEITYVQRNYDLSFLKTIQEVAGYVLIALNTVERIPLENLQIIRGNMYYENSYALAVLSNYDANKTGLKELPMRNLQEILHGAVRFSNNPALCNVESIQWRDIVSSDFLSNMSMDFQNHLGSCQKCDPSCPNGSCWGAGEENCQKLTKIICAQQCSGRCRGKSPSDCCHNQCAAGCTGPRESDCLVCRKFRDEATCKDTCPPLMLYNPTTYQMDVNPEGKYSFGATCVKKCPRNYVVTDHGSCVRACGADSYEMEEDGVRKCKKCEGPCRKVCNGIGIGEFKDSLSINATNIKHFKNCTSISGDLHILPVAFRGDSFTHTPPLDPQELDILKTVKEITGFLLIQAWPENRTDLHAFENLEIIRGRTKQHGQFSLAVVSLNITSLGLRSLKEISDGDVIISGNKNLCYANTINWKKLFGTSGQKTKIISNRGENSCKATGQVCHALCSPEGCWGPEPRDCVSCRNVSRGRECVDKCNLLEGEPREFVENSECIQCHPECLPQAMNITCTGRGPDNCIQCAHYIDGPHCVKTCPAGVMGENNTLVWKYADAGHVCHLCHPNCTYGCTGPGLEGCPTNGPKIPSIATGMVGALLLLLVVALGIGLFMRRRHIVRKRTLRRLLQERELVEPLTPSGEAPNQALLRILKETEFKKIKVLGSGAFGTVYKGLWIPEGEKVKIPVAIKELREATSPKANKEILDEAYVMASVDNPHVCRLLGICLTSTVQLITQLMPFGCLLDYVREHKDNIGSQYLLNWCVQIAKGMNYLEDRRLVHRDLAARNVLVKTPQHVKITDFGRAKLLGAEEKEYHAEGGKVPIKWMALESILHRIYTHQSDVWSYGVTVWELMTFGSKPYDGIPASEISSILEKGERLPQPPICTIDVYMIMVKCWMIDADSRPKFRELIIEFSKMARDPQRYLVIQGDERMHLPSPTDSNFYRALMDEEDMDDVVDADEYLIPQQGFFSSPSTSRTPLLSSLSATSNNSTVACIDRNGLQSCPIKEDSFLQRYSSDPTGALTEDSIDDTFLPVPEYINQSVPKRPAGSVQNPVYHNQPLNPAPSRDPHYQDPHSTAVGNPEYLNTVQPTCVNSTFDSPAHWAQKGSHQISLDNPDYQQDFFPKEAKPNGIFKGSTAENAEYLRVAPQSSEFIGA", "assay": "Inhibition of EGFR L858R mutant (unknown origin) at 10 uM relative to control"}, "[10]": {"tested_on": "NCI-H1975", "assay": "Induction in apoptosis in human NCI-H1975 cells assessed as necrotic cells at 1 uM incubated for 24 hrs by Annexin V-FITC/Propidium Iodide staining based flow cytometry analysis (reference value: 1.42 %)", "format": "functional"}, "[11]": {"tested_on": "A549", "assay": "Induction of cell cycle arrest in human A549 cells overexpressing c-MET assessed as accumulation of cells at G2/M phase at 1 uM incubated for 24 hrs by RNase A/propidium iodide staining based flow cytometric analysis (reference value: 12.41 %)", "format": "functional"}, "[12]": {"tested_on": "PC-9", "assay": "Antimigratory activity against EGF-induced cell migration in serum starved human PC-9 cells assessed as increase in width of artificial gap incubated for 24 hrs by wound healing assay", "format": "functional, cell-based", "details": "dose 1-2.5 µM"}, "[13]": {"target": "T1, Hepatocyte growth factor receptor (Homo sapiens, UniProt P08581)", "T1 sequence (P08581 whole entry)": "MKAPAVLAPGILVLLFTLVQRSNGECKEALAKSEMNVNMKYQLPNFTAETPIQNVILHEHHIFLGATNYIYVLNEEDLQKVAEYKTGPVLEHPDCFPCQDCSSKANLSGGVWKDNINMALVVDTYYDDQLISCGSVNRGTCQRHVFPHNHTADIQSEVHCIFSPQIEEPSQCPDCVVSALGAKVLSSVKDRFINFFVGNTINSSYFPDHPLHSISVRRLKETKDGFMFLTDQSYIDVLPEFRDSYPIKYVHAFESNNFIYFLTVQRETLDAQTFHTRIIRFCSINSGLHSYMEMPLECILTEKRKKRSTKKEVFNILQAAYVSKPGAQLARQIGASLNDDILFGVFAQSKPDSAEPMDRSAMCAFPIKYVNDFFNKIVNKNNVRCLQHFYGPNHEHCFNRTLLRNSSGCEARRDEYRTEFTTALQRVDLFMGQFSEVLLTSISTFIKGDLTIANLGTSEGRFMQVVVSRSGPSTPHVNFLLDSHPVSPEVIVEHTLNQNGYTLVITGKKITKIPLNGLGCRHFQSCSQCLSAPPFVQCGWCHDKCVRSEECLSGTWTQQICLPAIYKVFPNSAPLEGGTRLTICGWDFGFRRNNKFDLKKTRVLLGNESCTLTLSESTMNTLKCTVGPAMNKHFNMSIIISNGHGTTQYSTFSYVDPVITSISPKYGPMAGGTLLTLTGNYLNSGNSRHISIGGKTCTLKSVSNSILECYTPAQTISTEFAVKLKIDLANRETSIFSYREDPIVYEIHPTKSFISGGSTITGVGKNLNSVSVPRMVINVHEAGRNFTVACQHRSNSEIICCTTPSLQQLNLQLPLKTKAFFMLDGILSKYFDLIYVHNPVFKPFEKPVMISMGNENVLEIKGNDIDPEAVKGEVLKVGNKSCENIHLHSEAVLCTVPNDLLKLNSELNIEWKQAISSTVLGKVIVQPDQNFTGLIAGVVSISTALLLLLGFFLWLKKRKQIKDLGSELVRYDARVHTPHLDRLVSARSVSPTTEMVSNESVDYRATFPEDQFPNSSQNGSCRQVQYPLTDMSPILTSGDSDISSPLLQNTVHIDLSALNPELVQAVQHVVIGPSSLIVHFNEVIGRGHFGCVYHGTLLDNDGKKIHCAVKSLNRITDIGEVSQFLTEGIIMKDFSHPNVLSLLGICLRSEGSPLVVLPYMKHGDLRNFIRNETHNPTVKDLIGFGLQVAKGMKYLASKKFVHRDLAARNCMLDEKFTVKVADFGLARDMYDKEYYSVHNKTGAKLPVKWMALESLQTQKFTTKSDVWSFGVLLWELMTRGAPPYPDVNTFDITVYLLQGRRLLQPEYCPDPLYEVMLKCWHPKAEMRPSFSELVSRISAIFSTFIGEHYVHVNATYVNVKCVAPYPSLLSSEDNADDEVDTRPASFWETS", "assay": "Potency index, ratio of foretinib IC50 to test compound IC50 for inhibition of N-terminal GST tagged human recombinant c-Met (956 to end residues) expressed in baculovirus infected Sf9 cells using Poly (4:1 Glu, Tyr) as substrate incubated for 60 mins in presence of ATP by ADP-Glo luminescent assay"}, "[14]": {"tested_on": "A549", "assay": "Induction of cell cycle arrest in human A549 cells overexpressing c-MET assessed as accumulation of cells at S phase at 2.5 uM incubated for 24 hrs by RNase A/propidium iodide staining based flow cytometric analysis (reference value: 37.87 %)", "format": "functional"}, "[15]": {"tested_on": "A549", "assay": "Induction of cell cycle arrest in human A549 cells overexpressing c-MET assessed as accumulation of cells at G1/G0 phase at 2.5 uM incubated for 24 hrs by RNase A/propidium iodide staining based flow cytometric analysis (reference value: 49.24 %)", "format": "functional"}, "[16]": {"tested_on": "NCI-H1975", "assay": "Inhibition of colony formation in human NCI-H1975 cells at 1 uM preincubated for 48 hrs followed by media replacement for every 2 days for 14 days by crystal violet staining based microscopic analysis relative to control", "format": "functional"}, "[17]": {"target": "T1, Hepatocyte growth factor receptor", "assay": "biochemical", "description": "Inhibition of N-terminal GST tagged human recombinant c-Met (956 to end residues) expressed in baculovirus infected Sf9 cells using Poly (4:1 Glu, Tyr) as substrate incubated for 60 mins in presence of ATP by ADP-Glo luminescent assay"}, "[18]": {"tested_on": "A549", "assay": "Downregulation of phosphorylated c-Met protein expression human A549 cells overexpressing c-MET incubated for 24 hrs by Western blotting analysis", "format": "functional, cell-based", "details": "dose 1-10 µM"}, "[19]": {"tested_on": "NCI-H1975", "assay": "Induction in apoptosis in human NCI-H1975 cells assessed as viable cells at 1 uM incubated for 24 hrs by Annexin V-FITC/Propidium Iodide staining based flow cytometry analysis (reference value: 91.58 %)", "format": "functional", "details": "read-out: Activity"}, "[20]": {"tested_on": "A549", "assay": "Induction in apoptosis in human A549 cells overexpressing c-MET assessed as necrotic cells at 2.5 uM incubated for 24 hrs by Annexin V-FITC/Propidium Iodide staining based flow cytometry analysis (reference value: 3.22 %)", "format": "functional"}, "[21]": {"assay": "Cardiotoxicity in KM mouse assessed as effect on creatine kinase level at 100 mg/kg, IG qd administered for 7 days by automatic biochemical analyzer", "format": "toxicity, organism-based", "details": "in vivo, po, 168 h, time 7 day"}, "[22]": {"target": "T1, Hepatocyte growth factor receptor", "assay": "Inhibition of c-MET (unknown origin) at 10 uM relative to control"}, "[23]": {"tested_on": "A549", "assay": "Inhibition of colony formation in human A549 cells overexpressing c-MET preincubated for 48 hrs followed by media replacement for every 2 days for 14 days by crystal violet staining based microscopic analysis", "format": "functional, cell-based", "details": "dose 0.25-2 µM"}, "[24]": {"tested_on": "NCI-H1975", "assay": "Induction in apoptosis in human NCI-H1975 cells assessed as late apoptotic cells at 1 uM incubated for 24 hrs by Annexin V-FITC/Propidium Iodide staining based flow cytometry analysis (reference value: 4.46 %)", "format": "functional"}, "[25]": {"target": "Fibroblast growth factor receptor 4 (Homo sapiens) (UniProt P22455)", "assay": "Inhibition of FGFR4 (unknown origin) at 10 uM"}, "[26]": {"assay": "Acute toxicity in KM mouse assessed as effect on total protein level at 100 mg/kg, IG qd administered for 7 days by automatic biochemical analyzer", "format": "organism-based", "details": "in vivo, po, 168 h, time 7 day"}, "[27]": {"target": "Fibroblast growth factor receptor 3 (Homo sapiens) (UniProt P22607)", "assay": "Inhibition of FGFR3 (unknown origin) at 10 uM"}, "[28]": {"tested_on": "A549", "assay": "Inhibition of colony formation in human A549 cells overexpressing c-MET at 2 uM preincubated for 48 hrs followed by media replacement for every 2 days for 14 days by crystal violet staining based microscopic analysis relative to control", "format": "functional"}, "[29]": {"assay": "Hemolytic activity in sheep erythrocytes at 128 ug/ml incubated for 2 hr by UV spectrophotometer relative to control", "format": "toxicity, cell-based, Ovis aries, Erythrocyte", "details": "at 128 µg/mL, read-out: Activity"}, "[30]": {"target": "Tyrosine-protein kinase receptor UFO (Homo sapiens) (UniProt P30530)", "sequence (P30530 whole entry)": "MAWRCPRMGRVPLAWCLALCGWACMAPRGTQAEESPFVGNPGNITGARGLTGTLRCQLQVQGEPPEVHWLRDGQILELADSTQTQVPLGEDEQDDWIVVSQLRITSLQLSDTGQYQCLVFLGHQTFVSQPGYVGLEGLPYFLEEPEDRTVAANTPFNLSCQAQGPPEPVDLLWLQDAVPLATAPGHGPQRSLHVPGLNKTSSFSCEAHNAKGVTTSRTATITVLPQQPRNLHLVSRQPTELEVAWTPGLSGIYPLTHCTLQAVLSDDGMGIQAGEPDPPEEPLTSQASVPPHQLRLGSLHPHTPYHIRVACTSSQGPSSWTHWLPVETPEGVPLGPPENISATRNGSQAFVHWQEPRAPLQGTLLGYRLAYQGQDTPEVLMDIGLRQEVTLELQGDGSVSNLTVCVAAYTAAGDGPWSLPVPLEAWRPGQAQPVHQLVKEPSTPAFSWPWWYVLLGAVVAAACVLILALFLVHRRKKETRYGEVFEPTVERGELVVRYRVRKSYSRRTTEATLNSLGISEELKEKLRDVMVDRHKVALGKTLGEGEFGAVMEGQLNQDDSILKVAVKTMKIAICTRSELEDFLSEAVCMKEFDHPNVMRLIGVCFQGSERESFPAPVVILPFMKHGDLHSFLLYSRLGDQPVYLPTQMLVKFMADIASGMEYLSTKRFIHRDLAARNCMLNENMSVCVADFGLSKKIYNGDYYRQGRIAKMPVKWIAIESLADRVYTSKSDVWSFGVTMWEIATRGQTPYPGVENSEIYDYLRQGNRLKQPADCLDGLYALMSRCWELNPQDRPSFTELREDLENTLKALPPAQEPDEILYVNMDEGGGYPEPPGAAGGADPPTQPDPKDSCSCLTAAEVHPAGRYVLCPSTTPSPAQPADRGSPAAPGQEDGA", "assay": "Inhibition of AXL (unknown origin) at 10 uM"}, "[31]": {"target": "Insulin-like growth factor 1 receptor (Homo sapiens) (UniProt P08069)", "assay": "Inhibition of IGF-1R (unknown origin) at 10 uM"}, "[32]": {"assay": "Acute toxicity in KM mouse assessed as cell damage or necrosis in spleen at 100 mg/kg, IG qa administered for 7 days and measured on day 8 by hematoxylin and eosin staining based assay", "format": "organism-based", "details": "in vivo, po, 192 h, time 8 day"}, "[33]": {"tested_on": "A549", "assay": "Inhibition of colony formation in human A549 cells overexpressing c-MET at 1 uM preincubated for 48 hrs followed by media replacement for every 2 days for 14 days by crystal violet staining based microscopic analysis relative to control", "format": "functional"}, "[34]": {"tested_on": "NCI-H1975", "assay": "Inhibition of colony formation in human NCI-H1975 cells preincubated for 48 hrs followed by media replacement for every 2 days for 14 days by crystal violet staining based microscopic analysis", "format": "functional, cell-based", "details": "dose 0.25-2 µM"}},
  "note": "Calls of active or inactive are those of the source. No cut-off for these calls is given here.",
  "data": [
    {"molecule": "C=CC(=O)Nc1cc2c(Oc3ccc(NC(=O)n4c(=O)c(-c5ccccc5)c(C)n4C)cc3F)cccc2cc1OC", "values": [
      {"measurement": "Activity", "setting": "[1]", "value": "Non-Toxic"},
      {"measurement": "Activity", "setting": "[2]", "value": 0.34, "unit": "%"},
      {"measurement": "Activity", "setting": "[3]", "value": "Non-Toxic"},
      {"measurement": "inhibition", "setting": "[4]", "value": "inactive"},
      {"measurement": "IC50", "setting": "[5]", "value": 1060, "unit": "nM"},
      {"measurement": "Activity", "setting": "[6]", "value": "Non-Toxic"},
      {"measurement": "Activity", "setting": "[7]", "value": "Dose-Dependent Effect"},
      {"measurement": "Activity", "setting": "[8]", "value": 35.49, "unit": "%"},
      {"measurement": "inhibition", "setting": "[9]", "value": "> 90", "unit": "%"},
      {"measurement": "Activity", "setting": "[10]", "value": 1.74, "unit": "%"},
      {"measurement": "Activity", "setting": "[11]", "value": 11.29, "unit": "%"},
      {"measurement": "Activity", "setting": "[12]", "value": "Dose-Dependent Effect"},
      {"measurement": "Ratio IC50", "setting": "[13]", "value": 28},
      {"measurement": "Activity", "setting": "[14]", "value": 31.41, "unit": "%"},
      {"measurement": "Activity", "setting": "[15]", "value": 57.29, "unit": "%"},
      {"measurement": "inhibition at 1 µM", "setting": "[16]", "value": "~50", "unit": "%"},
      {"measurement": "IC50", "setting": "[17]", "value": 0.26, "unit": "nM"},
      {"measurement": "Activity", "setting": "[18]", "value": "Dose-Dependent Effect"},
      {"measurement": "viability at 1 µM", "setting": "[19]", "value": 88.2, "unit": "%"},
      {"measurement": "Activity", "setting": "[20]", "value": 6.65, "unit": "%"},
      {"measurement": "Activity", "setting": "[21]", "value": "Non-Toxic"},
      {"measurement": "inhibition", "setting": "[22]", "value": "> 90", "unit": "%"},
      {"measurement": "inhibition", "setting": "[23]", "value": "Dose-Dependent Effect"},
      {"measurement": "Activity", "setting": "[24]", "value": 7.27, "unit": "%"},
      {"measurement": "inhibition", "setting": "[25]", "value": "inactive"},
      {"measurement": "Activity", "setting": "[26]", "value": "Non-Toxic"},
      {"measurement": "inhibition", "setting": "[27]", "value": "inactive"},
      {"measurement": "inhibition at 2 µM", "setting": "[28]", "value": "~100", "unit": "%"},
      {"measurement": "hemolysis at 2 h, 128 ug/ml", "setting": "[29]", "value": 5, "unit": "%"},
      {"measurement": "inhibition", "setting": "[30]", "value": "inactive"},
      {"measurement": "inhibition", "setting": "[31]", "value": "inactive"},
      {"measurement": "Activity", "setting": "[32]", "value": "Non-Toxic"},
      {"measurement": "inhibition at 1 µM", "setting": "[33]", "value": "~50", "unit": "%"},
      {"measurement": "inhibition", "setting": "[34]", "value": "Dose-Dependent Effect"}
    ]}
  ]
}
